Measured values as given in patent publication US8530490B2, “Uracil compound or salt thereof having human deoxyuridine triphosphatase inhibitory activity” (Taiho Pharmaceutical Co., Ltd., priority 2008, dated 2013).

target: human dUTPase (Homo sapiens (Human), UniProt P33316); test: Human dUTPase inhibitory effect: production of [5-3H]dUMP from [5-3H]dUTP, measured by HPLC with flow scintillation; type: biochemical; conditions: [5-3H]dUMP production from [5-3H]dUTP, 37° C., 15 minutes
Method: The inhibitory activity of the compound of the present invention against human dUTPase was determined by measuring the production of [5-^3H]deoxyuridine monophosphate (hereinafter, referred to as [5-^3H]dUMP) from [5-^3H]deoxyuridine triphosphate (hereinafter, referred to as [5-^3H]dUTP) according to a method shown below.
Specifically, 0.2 mL in total of a solution containing 0.02 mL of 1 μM dUTP (including 588 Bq/mL [5-3H]dUTP), 0.05 mL of a 0.2 M Tris buffer solution (pH 7.4), 0.05 mL of 16 mM magnesium chloride, 0.02 mL of 20 mM 2-mercaptoethanol, 0.02 mL of a 1% aqueous solution of fetal bovine serum-derived albumin, 0.02 mL of varying concentrations of test compound solutions or pure water as a control, and 0.02 mL of a solution of human dUTPase (expressed using E. coli and purified) was reacted at 37° C. for 15 minutes. Immediately after the reaction, the solution was heated at 100° C. for 1 minute to terminate the reaction, followed by centrifugation at 15000 rpm for 2 minutes. An aliquot (150 μL) of the supernatant thus obtained by centrifugation was analyzed using an Atlantis dC18 column (manufactured by Waters Corp., 4.6×250 mm) and a high-performance liquid chromatograph (manufactured by Shimadzu Corp., Prominence). Elution was performed at a flow rate of 0.8 mL/min for 30 minutes by a concentration gradient from a 4:6 mixed solution of a mobile phase A (10 mM potassium dihydrogen phosphate (pH 6.7), 10 mM tetrabutylammonium, and 0.25% methanol) and a mobile phase B (50 mM potassium dihydrogen phosphate (pH 6.7), 5.6 mM tetrabutylammonium, and 30% methanol) to the mobile phase B. The eluate was mixed with a scintillator (manufactured by PerkinElmer Co., Ltd., Ultima-Flo AP) at a 1:2 ratio, and the radioactivity of the produced [5-^3H]dUMP (RT 10.2 min) was measured using Radiomatic Flow Scintillation Analyzer (manufactured by PerkinElmer Co., Ltd., 525TR).
The inhibitory activity of the test compound was determined according to the formula shown below.

Sequence of human dUTPase (P33316 94-252): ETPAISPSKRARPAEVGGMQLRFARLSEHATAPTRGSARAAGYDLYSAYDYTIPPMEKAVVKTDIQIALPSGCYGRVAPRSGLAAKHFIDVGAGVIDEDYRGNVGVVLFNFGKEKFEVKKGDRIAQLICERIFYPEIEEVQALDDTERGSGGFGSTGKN

Row | SMILES | IC50
1 | CC(C)(NS(=O)(=O)CCCOCn1ccc(=O)[nH]c1=O)c1ccc(F)c(OCC2CC2)c1 [Example 28, N-(2-(3-(cyclopropylmethoxy)-4-fluorophenyl)propan-2-yl)-3-((2,4-dioxo-3,4-dihydropyrimidin-1(2H)-yl)methoxy)propane-1-sulfonamide] | 360 nM
2 | O=c1ccn(COCCCS(=O)(=O)NC(c2ccccc2)c2cccc(OCC3CCC3)c2)c(=O)[nH]1 (stereo not drawn) [Example 29, N-((3-(cyclobutylmethoxy)phenyl)(phenyl)methyl)-3-((2,4-dioxo-3,4-dihydropyrimidin-1(2H)-yl)methoxy)propane-1-sulfonamide] | 890 nM
3 | O=c1ccn(COCCCS(=O)(=O)NC(c2cccc(OCC3CC3)c2)C2CC2)c(=O)[nH]1 (stereo not drawn) [Example 30, N-(cyclopropyl(3-(cyclopropylmethoxy)phenyl)methyl)-3-((2,4-dioxo-3,4-dihydropyrimidin-1(2H)-yl)methoxy)propane-1-sulfonamide] | 360 nM
4 | O=c1ccn(COCCCS(=O)(=O)NCc2cccc(OC3CC3)c2)c(=O)[nH]1 [Example 33, N-(3-cyclopropoxybenzyl)-3-((2,4-dioxo-3,4-dihydropyrimidin-1(2H)-yl)methoxy)propane-1-sulfonamide] | 1130 nM
5 | CCC(NS(=O)(=O)CCCOCn1ccc(=O)[nH]c1=O)c1ccc(F)c(OCC2CC2)c1 (stereo not drawn) [Example 34, N-(1-(3-(cyclopropylmethoxy)-4-fluorophenyl)propyl)-3-((2,4-dioxo-3,4-dihydropyrimidin-1(2H)-yl)methoxy)propane-1-sulfonamide] | 30 nM
6 | CC(C)[C@H](NS(=O)(=O)CCCOCn1ccc(=O)[nH]c1=O)c1ccc(F)c(OCC2CC2)c1 [Example 35, (S)—N-(1-(3-(cyclopropylmethoxy)-4-fluorophenyl)-2-methylpropyl)-3-((2,4-dioxo-3,4-dihydropyrimidin-1(2H)-yl)methoxy)propane-1-sulfonamide] | 1550 nM
7 | CC(NS(=O)(=O)CCCOCn1ccc(=O)[nH]c1=O)c1ccc(F)c(OCC2CC2)c1 (stereo not drawn) [Example 36, N-(1-(3-(cyclopropylmethoxy)-4-fluorophenyl)ethyl)-3-((2,4-dioxo-3,4-dihydropyrimidin-1(2H)-yl)methoxy)propane-1-sulfonamide] | 150 nM
8 | O=c1ccn(COCCCS(=O)(=O)N[C@H](c2ccc(F)cc2)c2ccc(F)c(OCC3CC3)c2)c(=O)[nH]1 [Example 37, (R)—N-((3-(cyclopropylmethoxy)-4-fluorophenyl)(4-fluorophenyl)methyl)-3-((2,4-dioxo-3,4-dihydropyrimidin-1(2H)-yl)methoxy)propane-1-sulfonamide] | 100 nM
9 | O=c1ccn(COCCCS(=O)(=O)N[C@@H](c2ccc(F)c(OCC3CC3)c2)c2cccs2)c(=O)[nH]1 [Example 38, (S)—N-((3-(cyclopropylmethoxy)-4-fluorophenyl)(thiophen-2-yl)methyl)-3-((2,4-dioxo-3,4-dihydropyrimidin-1(2H)-yl)methoxy)propane-1-sulfonamide] | 30 nM
10 | O=c1ccn(COCCCS(=O)(=O)NC2(c3cccc(OCC4CC4)c3)CCCC2)c(=O)[nH]1 [Example 39, N-(1-(3-(cyclopropylmethoxy)phenyl)cyclopentyl)-3-((2,4-dioxo-3,4-dihydropyrimidin-1(2H)-yl)methoxy)propane-1-sulfonamide] | 280 nM
11 | O=c1ccn(COCCCS(=O)(=O)N[C@@H](c2ccc(F)c(OCC3CC3)c2)C2CC2)c(=O)[nH]1 [Example 40, (R)—N-(cyclopropyl (3-(cyclopropylmethoxy)-4-fluorophenyl)methyl)-3-((2,4-dioxo-3,4-dihydropyrimidin-1(2H)-yl)methoxy)propane-1-sulfonamide] | 100 nM
12 | CC[C@@H](NS(=O)(=O)CCCOCn1ccc(=O)[nH]c1=O)c1cccc(OC2CCCC2)c1 [Example 41, (R)—N-(1-(3-(cyclopentyloxy)phenyl)propyl)-3-((2,4-dioxo-3,4-dihydropyrimidin-1(2H)-yl)methoxy)propane-1-sulfonamide] | 40 nM
13 | O=c1ccn(COCCCS(=O)(=O)N[C@@H](c2cccc(OC3CCCC3)c2)C2CC2)c(=O)[nH]1 [Example 42, (R)—N-((3-(cyclopentyloxy)phenyl)(cyclopropyl)methyl)-3-((2,4-dioxo-3,4-dihydropyrimidin-1(2H)-yl)methoxy)propane-1-sulfonamide] | 330 nM
14 | O=c1ccn(COCCCS(=O)(=O)NCc2ccc(F)c(OC3CCCC3)c2)c(=O)[nH]1 [Example 44, N-(3-(cyclopentyloxy)-4-fluorobenzyl)-3-((2,4-dioxo-3,4-dihydropyrimidin-1(2H)-yl)methoxy)propane-1-sulfonamide] | 160 nM
15 | O=c1ccn(COCCCS(=O)(=O)NCc2cccc(OC3CCCCC3)c2)c(=O)[nH]1 [Example 45, N-(3-(cyclohexyloxy)benzyl)-3-((2,4-dioxo-3,4-dihydropyrimidin-1(2H)-yl)methoxy)propane-1-sulfonamide] | 2010 nM
16 | O=c1ccn(COCCCS(=O)(=O)NCc2cccc(OC3CCOCC3)c2)c(=O)[nH]1 [Example 46, 3-((2,4-dioxo-3,4-dihydropyrimidin-1(2H)-yl)methoxy)-N-(3-(tetrahydro-2H-pyran-4-yloxy)benzyl)propane-1-sulfonamide] | 2350 nM
17 | C[C@@H](NS(=O)(=O)CCCOCn1ccc(=O)[nH]c1=O)c1ccc(F)c(OC2CCOCC2)c1 [Example 48, (R)-3-((2,4-dioxo-3,4-dihydropyrimidin-1(2H)-yl)methoxy)-N-(1-(4-fluoro-3-(tetrahydro-2H-pyran-4-yloxy)phenyl)ethyl)propane-1-sulfonamide] | 140 nM

Other lines, results leading:

Row | IC50 | SMILES
18 | 40 nM | CC[C@@H](NS(=O)(=O)CCCOCn1ccc(=O)[nH]c1=O)c1cccc(OCC2CC2)c1 [Example 27, (R)—N-(1-(3-(cyclopropylmethoxy)phenyl)propyl)-3-((2,4-dioxo-3,4-dihydropyrimidin-1(2H)-yl)methoxy)propane-1-sulfonamide]
19 | 330 nM | CC(C)C(NS(=O)(=O)CCCOCn1ccc(=O)[nH]c1=O)c1cccc(OCC2CC2)c1 (stereo not drawn) [Example 31, N-(1-(3-(cyclopropylmethoxy)phenyl)-2-methylpropyl)-3-((2,4-dioxo-3,4-dihydropyrimidin-1(2H)-yl)methoxy)propane-1-sulfonamide]
20 | 140 nM | CC(NS(=O)(=O)CCCOCn1ccc(=O)[nH]c1=O)c1cccc(OC2CCCC2)c1 (stereo not drawn) [Example 32, N-(1-(3-(cyclopentyloxy)phenyl)ethyl)-3-((2,4-dioxo-3,4-dihydropyrimidin-1(2H)-yl)methoxy)propane-1-sulfonamide]
21 | 90 nM | CC[C@@H](NS(=O)(=O)CCCOCn1ccc(=O)[nH]c1=O)c1cccc(OC2CC2)c1 [Example 43, (R)—N-(1-(3-cyclopropoxyphenyl)propyl)-3-((2,4-dioxo-3,4-dihydropyrimidin-1(2H)-yl)methoxy)propane-1-sulfonamide]
22 | 210 nM | C[C@@H](NS(=O)(=O)CCCOCn1ccc(=O)[nH]c1=O)c1cccc(OC2CCOCC2)c1 [Example 47, (R)-3-((2,4-dioxo-3,4-dihydropyrimidin-1(2H)-yl)methoxy)-N-(1-(3-(tetrahydro-2H-pyran-4-yloxy)phenyl)ethyl)propane-1-sulfonamide]
23 | 940 nM | C[C@@H](NS(=O)(=O)CCCOCn1ccc(=O)[nH]c1=O)c1cccc(O[C@H]2CCOC2)c1 [Example 49, 3-((2,4-dioxo-3,4-dihydropyrimidin-1(2H)-yl)methoxy)-N—((R)-1-(3-((S)-tetrahydrofuran-3-yloxy)phenyl)ethyl)propane-1-sulfonamide]
24 | 830 nM | C[C@@H](NS(=O)(=O)CCCOCn1ccc(=O)[nH]c1=O)c1cccc(OC(F)(F)C(F)F)c1 [Example 51, (R)-3-((2,4-dioxo-3,4-dihydropyrimidin-1(2H)-yl)methoxy)-N-(1-(3-(1,1,2,2-tetrafluoroethoxy)phenyl)ethyl)propane-1-sulfonamide]
25 | 510 nM | C[C@@H](NS(=O)(=O)CCCOCn1ccc(=O)[nH]c1=O)c1cccc(OCC(C)(C)C)c1 [Example 52, (R)-3-((2,4-dioxo-3,4-dihydropyrimidin-1(2H)-yl)methoxy)-N-(1-(3-(neopentyloxy)phenyl)ethyl)propane-1-sulfonamide]
26 | 230 nM | C[C@@H](NS(=O)(=O)CCCOCn1ccc(=O)[nH]c1=O)c1cccc(OCC(F)(F)F)c1 [Example 53, (R)-3-((2,4-dioxo-3,4-dihydropyrimidin-1(2H)-yl)methoxy)-N-(1-(3-(2,2,2-trifluoroethoxy)phenyl)ethyl)propane-1-sulfonamide]
27 | 230 nM | C[C@@H](NS(=O)(=O)CCCOCn1ccc(=O)[nH]c1=O)c1ccc(F)c(OCC(F)(F)F)c1 [Example 54, (R)-3-((2,4-dioxo-3,4-dihydropyrimidin-1(2H)-yl)methoxy)-N-(1-(4-fluoro-3-(2,2,2-trifluoroethoxy)phenyl)ethyl)propane-1-sulfonamide]
